US20230085307A1, “PYRIDAZINONE COMPOUND AND HERBICIDE” (NISSAN CHEMICAL CORPORATION, priority 2019, published 2023)

What was measured:
late watergrass = test: Test Example 2: herbicidal activity, application during weed generation under submerged conditions (Table 17, symbol A); format: in vivo, late watergrass (Echinochloa oryzicola); settings: AAH 320 g/ha; application during weed generation, submerged conditions
How it was run: (§1)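 Alluvial soil in Wagner pots was flooded to 4 cm depth and sown with the three weeds together; pots were kept in a greenhouse at 25° C. to 30° C. At the one to two leaf stage, an emulsion formulation diluted in water to a set rate went onto the water surface; scored three weeks later.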

Japanese bulrush = test: Test Example 2: herbicidal activity, application during weed generation under submerged conditions (Table 17, symbol B); format: in vivo, Japanese bulrush (Schoenoplectus juncoides); settings: AAH 320 g/ha; application during weed generation, submerged conditions
How it was run: as §1

oval-leafed pondweed = test: Test Example 2: herbicidal activity, application during weed generation under submerged conditions (Table 17, symbol C); format: in vivo, oval-leafed pondweed (Monochoria vaginalis); settings: AAH 320 g/ha; application during weed generation, submerged conditions
How it was run: as §1

barnyard grass [1] = test: Test Example 3: herbicidal effect by foliage application, Wagner pot (Table 18, symbol H); format: in vivo, barnyard grass (Echinochloa crus-galli); settings: 320 g/ha
How it was run: (§2)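 Plants were sown in alluvial soil held under 0.1–0.5 cm standing water and grown 14 days in a greenhouse at 25–30 °C. An emulsifiable formulation, water-diluted to the set dose, was then sprayed onto the foliage, and effects were scored three weeks later using previously defined criteria.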

Chinese sprangletop = test: Test Example 3: herbicidal effect by foliage application, Wagner pot (Table 18, symbol D); format: in vivo, chinese sprangletop (Leptochloa chinensis); settings: 320 g/ha
How it was run: as §2

rice flat sedge = test: Test Example 3: herbicidal effect by foliage application, Wagner pot (Table 18, symbol E); format: in vivo, rice flat sedge (Cyperus iria); settings: 320 g/ha
How it was run: as §2

southern crabgrass [2] = test: Test Example 4: herbicidal effect by soil treatment (Table 19, symbol F); format: in vivo, southern crabgrass (Digitaria ciliaris); settings: amount of applied herbicide 320 g/ha
How it was run: (§3)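 In this soil treatment, the formulated compound reached the seeds only through the soil: seeds were buried about 1.5 cm deep in sterilized diluvial soil, then the diluted emulsion was sprayed over the surface. After three weeks at 25° C. to 30° C. in a greenhouse, effects were graded on criteria from an earlier test.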

green foxtail [3] = test: Test Example 4: herbicidal effect by soil treatment (Table 19, symbol G); format: in vivo, green foxtail (Setaria viridis); settings: amount of applied herbicide 320 g/ha
How it was run: as §3

barnyard grass [4] = test: Test Example 4: herbicidal effect by soil treatment (Table 19, symbol H); format: in vivo, barnyard grass (Echinochloa crus-galli); settings: amount of applied herbicide 320 g/ha
How it was run: as §3

wild oat [5] = test: Test Example 4: herbicidal effect by soil treatment (Table 19, symbol I); format: in vivo, wild oat (Avena fatua); settings: amount of applied herbicide 320 g/ha
How it was run: as §3

blackgrass [6] = test: Test Example 4: herbicidal effect by soil treatment (Table 19, symbol J); format: in vivo, blackgrass (Alopecurus myosuroides); settings: amount of applied herbicide 320 g/ha
How it was run: as §3

Italian ryegrass [7] = test: Test Example 4: herbicidal effect by soil treatment (Table 19, symbol K); format: in vivo, Italian ryegrass (Lolium multiflorum); settings: amount of applied herbicide 320 g/ha
How it was run: as §3

windgrass [8] = test: Test Example 4: herbicidal effect by soil treatment (Table 19, symbol L); format: in vivo, windgrass (Apera spica-venti); settings: amount of applied herbicide 320 g/ha
How it was run: as §3

velvetleaf [9] = test: Test Example 4: herbicidal effect by soil treatment (Table 19, symbol M); format: in vivo, velvetleaf (Abutilon theophrasti); settings: amount of applied herbicide 320 g/ha
How it was run: as §3

redroot pigweed [10] = test: Test Example 4: herbicidal effect by soil treatment (Table 19, symbol N); format: in vivo, redroot pigweed (Amaranthus retroflexus); settings: amount of applied herbicide 320 g/ha
How it was run: as §3

lambsquarters [11] = test: Test Example 4: herbicidal effect by soil treatment (Table 19, symbol O); format: in vivo, lambsquarters (Chenopodium album); settings: amount of applied herbicide 320 g/ha
How it was run: as §3

chickweed [12] = test: Test Example 4: herbicidal effect by soil treatment (Table 19, symbol P); format: in vivo, common chickweed (Stellaria media); settings: amount of applied herbicide 320 g/ha
How it was run: as §3

false cleavers [13] = test: Test Example 4: herbicidal effect by soil treatment (Table 19, symbol Q); format: in vivo, false cleavers (Galium spurium); settings: amount of applied herbicide 320 g/ha
How it was run: as §3

persian speedwell [14] = test: Test Example 4: herbicidal effect by soil treatment (Table 19, symbol R); format: in vivo, Persian speedwell (Veronica persica); settings: amount of applied herbicide 320 g/ha
How it was run: as §3

southern crabgrass [15] = test: Test Example 5: herbicidal effect by foliage application, plastic box (Table 20, symbol F); format: in vivo, southern crabgrass (Digitaria ciliaris); settings: foliage application, 320 g/ha, evaluated three weeks after application
How it was run: (§4)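 Plants were sown into sterilized diluvial soil under about 1.5 cm cover and kept in a greenhouse at 25° C. to 30° C. Fourteen days on, foliage received an even spray of the diluted emulsion. Herbicidal or crop effect was judged three weeks afterwards.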

green foxtail [16] = test: Test Example 5: herbicidal effect by foliage application, plastic box (Table 20, symbol G); format: in vivo, green foxtail (Setaria viridis); settings: foliage application, 320 g/ha, evaluated three weeks after application
How it was run: as §4

barnyard grass [17] = test: Test Example 5: herbicidal effect by foliage application, plastic box (Table 20, symbol H); format: in vivo, barnyard grass (Echinochloa crus-galli); settings: foliage application, 320 g/ha, evaluated three weeks after application
How it was run: as §4

wild oat [18] = test: Test Example 5: herbicidal effect by foliage application, plastic box (Table 20, symbol I); format: in vivo, wild oat (Avena fatua); settings: foliage application, 320 g/ha, evaluated three weeks after application
How it was run: as §4

blackgrass [19] = test: Test Example 5: herbicidal effect by foliage application, plastic box (Table 20, symbol J); format: in vivo, blackgrass (Alopecurus myosuroides); settings: foliage application, 320 g/ha, evaluated three weeks after application
How it was run: as §4

Italian ryegrass [20] = test: Test Example 5: herbicidal effect by foliage application, plastic box (Table 20, symbol K); format: in vivo, Italian ryegrass (Lolium multiflorum); settings: foliage application, 320 g/ha, evaluated three weeks after application
How it was run: as §4

windgrass [21] = test: Test Example 5: herbicidal effect by foliage application, plastic box (Table 20, symbol L); format: in vivo, windgrass (Apera spica-venti); settings: foliage application, 320 g/ha, evaluated three weeks after application
How it was run: as §4

velvetleaf [22] = test: Test Example 5: herbicidal effect by foliage application, plastic box (Table 20, symbol M); format: in vivo, velvetleaf (Abutilon theophrasti); settings: foliage application, 320 g/ha, evaluated three weeks after application
How it was run: as §4

redroot pigweed [23] = test: Test Example 5: herbicidal effect by foliage application, plastic box (Table 20, symbol N); format: in vivo, redroot pigweed (Amaranthus retroflexus); settings: foliage application, 320 g/ha, evaluated three weeks after application
How it was run: as §4

lambsquarters [24] = test: Test Example 5: herbicidal effect by foliage application, plastic box (Table 20, symbol O); format: in vivo, lambsquarters (Chenopodium album); settings: foliage application, 320 g/ha, evaluated three weeks after application
How it was run: as §4

chickweed [25] = test: Test Example 5: herbicidal effect by foliage application, plastic box (Table 20, symbol P); format: in vivo, common chickweed (Stellaria media); settings: foliage application, 320 g/ha, evaluated three weeks after application
How it was run: as §4

false cleavers [26] = test: Test Example 5: herbicidal effect by foliage application, plastic box (Table 20, symbol Q); format: in vivo, false cleavers (Galium spurium); settings: foliage application, 320 g/ha, evaluated three weeks after application
How it was run: as §4

persian speedwell [27] = test: Test Example 5: herbicidal effect by foliage application, plastic box (Table 20, symbol R); format: in vivo, Persian speedwell (Veronica persica); settings: foliage application, 320 g/ha, evaluated three weeks after application
How it was run: as §4

For `CCCC(=O)Oc1c(C)nn(C)c(=O)c1-c1c(-c2ccc(OC)cc2)sc2ccc(Cl)cc12` [2-104], the “herbicidal effect rating, A: late watergrass” value (late watergrass) was 0 (Herbicidal rate of 5% or less (almost no effect)), the “herbicidal effect rating, B: Japanese bulrush” value (Japanese bulrush) was 0 (Herbicidal rate of 5% or less (almost no effect)) and the “herbicidal effect rating, C: oval-leafed pondweed” value (oval-leafed pondweed) was 2 (Herbicidal rate of 20% or more and less than 40%). The “herbicidal effect on H (barnyard grass), rating 0-5” value (barnyard grass [1]) was 3 (Herbicidal rate of 40% or more and less than 70%), the “herbicidal effect on D (Chinese sprangletop), rating 0-5” value (Chinese sprangletop) was 0 (Herbicidal rate of 5% or less (almost no effect)) and the “herbicidal effect on E (rice flat sedge), rating 0-5” value (rice flat sedge) was 5 (Herbicidal rate of 90% or more (almost completely withered)). For the same compound, the “F: southern crabgrass, herbicidal effect rating” value (southern crabgrass [2]) was 0 (Herbicidal rate of 5% or less (almost no effect)), the “G: green foxtail, herbicidal effect rating” value (green foxtail [3]) was 0 (Herbicidal rate of 5% or less (almost no effect)) and the “H: barnyard grass, herbicidal effect rating” value (barnyard grass [4]) was 0 (Herbicidal rate of 5% or less (almost no effect)). For the same compound, the “I: wild oat, herbicidal effect rating” value (wild oat [5]) was 0 (Herbicidal rate of 5% or less (almost no effect)), the “J: blackgrass, herbicidal effect rating” value (blackgrass [6]) was 0 (Herbicidal rate of 5% or less (almost no effect)) and the “K: Italian ryegrass, herbicidal effect rating” value (Italian ryegrass [7]) was 0 (Herbicidal rate of 5% or less (almost no effect)). The “L: windgrass, herbicidal effect rating” value (windgrass [8]) was 0 (Herbicidal rate of 5% or less (almost no effect)), the “M: velvetleaf, herbicidal effect rating” value (velvetleaf [9]) was 3 (Herbicidal rate of 40% or more and less than 70%) and the “N: redroot pigweed, herbicidal effect rating” value (redroot pigweed [10]) was 4 (Herbicidal rate of 70% or more and less than 90%). The “O: lambsquarters, herbicidal effect rating” value (lambsquarters [11]) was 3 (Herbicidal rate of 40% or more and less than 70%), the “P: chickweed, herbicidal effect rating” value (chickweed [12]) was 3 (Herbicidal rate of 40% or more and less than 70%) and the “Q: false cleavers, herbicidal effect rating” value (false cleavers [13]) was 0 (Herbicidal rate of 5% or less (almost no effect)). For the same compound, the “R: persian speedwell, herbicidal effect rating” value (persian speedwell [14]) was 5 (Herbicidal rate of 90% or more (almost completely withered)), the “herbicidal effect on F: southern crabgrass” value (southern crabgrass [15]) was 0 (Herbicidal rate of 5% or less (almost no effect)) and the “herbicidal effect on G: green foxtail” value (green foxtail [16]) was 0 (Herbicidal rate of 5% or less (almost no effect)). For the same compound, the “herbicidal effect on H: barnyard grass” value (barnyard grass [17]) was 0 (Herbicidal rate of 5% or less (almost no effect)), the “herbicidal effect on I: wild oat” value (wild oat [18]) was 0 (Herbicidal rate of 5% or less (almost no effect)) and the “herbicidal effect on J: blackgrass” value (blackgrass [19]) was 0 (Herbicidal rate of 5% or less (almost no effect)). For the same compound, the “herbicidal effect on K: Italian ryegrass” value (Italian ryegrass [20]) was 0 (Herbicidal rate of 5% or less (almost no effect)), the “herbicidal effect on L: windgrass” value (windgrass [21]) was 0 (Herbicidal rate of 5% or less (almost no effect)) and the “herbicidal effect on M: velvetleaf” value (velvetleaf [22]) was 3 (Herbicidal rate of 40% or more and less than 70%). For the same compound, the “herbicidal effect on N: redroot pigweed” value (redroot pigweed [23]) was 3 (Herbicidal rate of 40% or more and less than 70%), the “herbicidal effect on O: lambsquarters” value (lambsquarters [24]) was 2 (Herbicidal rate of 20% or more and less than 40%) and the “herbicidal effect on P: chickweed” value (chickweed [25]) was 5 (Herbicidal rate of 90% or more (almost completely withered)). For the same compound, the “herbicidal effect on Q: false cleavers” value (false cleavers [26]) was 1 (Herbicidal rate of 5% or more and less than 20%) and the “herbicidal effect on R: persian speedwell” value (persian speedwell [27]) was 5 (Herbicidal rate of 90% or more (almost completely withered)).
